This note sets out measurements from patent US5976797A, “Method for quantifying total mRNA with poly(A)-complementary oligonucleotide-immobilized microtiter plate” (Hitachi Chemical Co., Ltd., priority 1996, dated 1999).

What all share (format): cell-based
Test [1] has as its system U937 human histiocytic lymphomas cell line. Kind of test: total mRNA assay (GENEPLATE, YOYO-1), U937 cells. Conditions: mean ± SD, n = 4; for IC50: Homo sapiens, U-937. Here is the method:
(§1) The CaR-1 human colon cancer cell line (JCRB0207) was a gift from Dr. K. Miyazaki (Kihara Institute for Biological Research, Yokohama, Japan). YOYO-1™ was purchased from Molecular Probes (Eugene, Oreg.). All other chemicals were purchased from Sigma (St. Louis, Mis.). Oligonucleotides were synthesized by a synthesizer (Applied Biosystems, San Jose, Calif.) according to the manufacturer's protocol.
(§2) U937, HL-60 and CaR-1 cells were grown in RPMI 1640 containing 50 units/ml penicillin, 50 μg/ml streptomycin, and 10% FCS at 37° C. in 5% CO2, 95% air. HepG2 cells were grown in Eagle's minimum essential medium (MEM) with 0.1 mM nonessential amino acids, 1 mM sodium pyruvate and Earle's balance solution (BSS). Floating cells were subcultured two to three times a week and adherent cells were removed by trypsinization and subcultured two to four times a month. Initial cell viability was always more than 95% as assessed by the exclusion of trypan blue (Ausubel et al., Current Protocols in Molecular Biology, John Wiley & Sons 1988; 11.5.1-11.5.2). The number of cells was determined in a hemocytometer.
The drugs were tested at 0.001, 0.01, 0.1, 1.0 and 10× PPC. Vinblastine was occasionally tested at 100× PPC.
(§3) Detailed procedures were described in our previous publication (Tominaga et al., Clin. Chem. 1996; 42:11, 1750-1757). In brief, 1 ml of cell suspension containing 5×10^5 cells were plated to each well of 12-well tissue culture plates for various periods, and each drug was exposed continuously or for two hours. Harvested cultured cells were washed with PBS one to two times. Cells were then resuspended in 200 μl of diethylpyrocarbonate (DEPC) -treated lysis buffer (10 mM Tris, pH7.5, 1 mM EDTA, 0.5M NaCl, 0.5% NP-40 and 20 mM VRC for five minutes on ice, then immediately centrifuged at 15,000 xg at 4° C. for five minutes. Fifty μl each of the supernatant was applied to the GENEPLATE™ (oligonucleotide-immobilized microplate) (Mitsuhashi et al., Nature 1992, 357:519-520). After one hour incubation at room temperature, unbound non-mRNA was removed by aspiration and washed with a low salt buffer (10 mM Tris, pH 7.6, 1 mM EDTA, 0.1 M naCl) three times. Fifty μl of YOYO-1™ in the final dilution of 1:1000 in TAE buffer (40 mM Tris-acetate, pH 8.0, 1 mM EDTA) was added to each well, and the fluorescence intensity of each well was measured by a fluorescent plate reader (CytoFlour™ 2300, Millipore, Bedford, Mass.) with excitation and emission wavelengths of 485 nm (bandwidth 20 nm) and 530 nm (bandwidth 25 nm), respectively, as previously described (Glazer et al., Nature 1992;359:859-861 and Ogura et al., Biotechniques 1994; 18:231-232).
(§4) Chemosensitivity was assessed for both continuous drug exposure and transient exposure (two hours). Total cytosolic poly(A)+ mRNA was measured as described in the Methods.
(§5) U937 cells were seeded at a density of 1×10^6 cells/ml in RPMI containing 10% FCS in a 96-well plate for MTT assay (.gradient.,.quadrature.) and a 24-well plate for the mRNA assay (.circle-solid.,.tangle-soliddn.). […] The values indicated in the means±standard error of triplicate determinations from a single experiment. Similar results were reproduced in more than three independent experiments (data not shown). […] MTT and mRNA assays were carried out as described in the Methods. The data obtained from the three-day MTT assay with 1× PPC (x-axis) were compared with those of the 12-hour mRNA assay with 10× PPC (y-axis). FIG. 8D (Total) is a mixture of FIGS. 8A-8C. Each point represents the means of triplicate determinations.

Test [2] has as its system CaR-1 human colon cancer cell line. Kind of test: MTT assay, CaR-1 cells. Conditions: mean ± SD, n = 4; for IC50: Homo sapiens. How it is done: as §1, §2
(§6) The following drugs have been tested using the reported peak plasma concentrations (PPCs) achieved during intravenous administration of clinical doses (Werner et al., Cancer Treat Rep 1986; 70:1379-1382). […] The drugs were tested at 0.001, 0.01, 0.1, 1.0 and 10× PPC. Vinblastine was occasionally tested at 100× PPC.
(§7) Cells were suspended in medium supplemented with 10% FCS, and 100 μl of single cell suspension containing 1×10^5 cells were added to the individual wells on 96 well microtiter plates. One hundred μl of anticancer drugs were added to each well to give the final concentrations as indicated above. The plates were incubated at 37° C. in a humidified atmosphere containing 5% CO2 in air for various periods. Twenty μl of 0.25% MTT in PBS was added to each well, and plates were incubated for an additional three hours. After centrifugation, supernatant solutions were removed and 200 μl of dimethyl sulfoxide were added to dissolve formazon products, and the plates were shaken for five minutes on a plate shaker (IS-963, Tomy, Palo Alto, Calif.). The absorbance of the well was read on a microplate spectrophotometer (Thermo max, Molecular Device, Mountain View, Calif.) using wavelength at 560 nm.
as §4

Test [3] concerns U937 human histiocytic lymphomas cell line. Kind of test: MTT assay, U937 cells. Conditions: for IC50 (MTT) / IC50: mean ± SD, n = 4; for IC50: Homo sapiens, U-937. Here is the method:
as §1, §2, §6, §7, §4, §5

The subject of test [4] is HepG2 human hepatocellular line. Kind of test: total mRNA assay (GENEPLATE, YOYO-1), HepG2 cells. Conditions: mean ± SD, n = 4; for IC50: Homo sapiens. Here is the method:
as §1, §2, §6, §3, §4

Test [5] relates to HL-60 human promyelocytic leukemia cell line. Kind of test: MTT assay, HL-60 cells. Conditions: mean ± SD, n = 4; for IC50: Homo sapiens, HL-60. How it is done: as §1, §2, §6, §7, §4
In test [6] the test system is HepG2 human hepatocellular line. Kind of test: MTT assay, HepG2 cells. Conditions: mean ± SD, n = 4; for IC50: Homo sapiens. Here is the method: as §1, §2, §6, §7, §4
Test [7] concerns HL-60 human promyelocytic leukemia cell line. Kind of test: total mRNA assay (GENEPLATE, YOYO-1), HL-60 cells. Conditions: mean ± SD, n = 4; for IC50: Homo sapiens, HL-60. How it is done: as §1, §2, §6, §3, §4
In test [8] the test system is CaR-1 human colon cancer cell line. Kind of test: total mRNA assay (GENEPLATE, YOYO-1), CaR-1 cells. The conditions noted are these: mean ± SD, n = 4; for IC50: Homo sapiens. Here is the method:
as §1, §2, §6, §3, §4

The mark [9] stands for this setting: U937, continuous exposure 72 hours.
Where [10] appears, read: U937, transient exposure 2 hours.
The mark [11] stands for this setting: CaR-1, continuous exposure 72 hours.
[12] abbreviates: CaR-1, transient exposure 2 hours.
Setting [13] is: HepG2, continuous exposure, printed 82 hours.
[14] abbreviates: HepG2, transient exposure 2 hours.
[15] abbreviates: HL60, continuous exposure 72 hours.
Where [16] appears, read: HL60, transient exposure 2 hours.

Values after ≈ are worked out from the molar mass of the structure shown.

Consider `N.N.[Cl][Pt][Cl]` [Cisplatin, cisplatin], for which the “IC50 (mRNA)” value in test [1] (setting [9]) is 1.58 ± 0.39 µg/mL; in test [1] (setting [10]) it was 18.52 ± 4.69 µg/mL; in test [4] (setting [13]), 9.81 ± 0.64 µg/mL; in test [4] (setting [14]), more than 20 µg/mL; in test [7] (setting [15]), 1.21 µg/mL; in test [7] (setting [16]), 9.30 µg/mL. The “IC50 (mRNA)” value in test [8] (setting [11]) was 3.09 ± 0.34 µg/mL; in test [8] (setting [12]) it was more than 20 µg/mL. For the same molecule, the “IC50 (MTT)” value in test [2] (setting [11]) was 3.08 ± 0.54 µg/mL; in test [2] (setting [12]), more than 20 µg/mL; in test [3] (setting [9]), 1.77 ± 0.05 µg/mL; in test [3] (setting [10]), 22.65 ± 0.03 µg/mL; in test [5] (setting [15]) it was 1.14 ± 0.01 µg/mL; in test [5] (setting [16]), 12.68 ± 0.30 µg/mL. Further, the figures for the “IC50 (MTT)” value in test [6] (setting [13]) and in test [6] (setting [14]) were 8.86 ± 0.40 µg/mL and more than 20 µg/mL, respectively. In addition, the “time after drug treatment at which similar reduction was observed, MTT assay” value in test [3] (U937, 10× PPC, continuous exposure) is 48 h.

With `CC[C@]1(O)C[C@@H]2CN(CCc3c([nH]c4ccccc34)[C@@](C(=O)OC)(c3cc4c(cc3OC)N(C)[C@H]3[C@@](O)(C(=O)OC)[C@H](OC(C)=O)[C@]5(CC)C=CCN6CC[C@]43[C@@H]65)C2)C1` [Vinblastine, vinblastine], the IC50 in test [1] (setting [9]) was less than 0.0005 µg/mL; in test [1] (setting [10]) it was 0.029 ± 0.001 µg/mL (≈ 0.0358 µM); in test [2] (setting [11]), 22.2 ± 14.4 µg/mL (≈ 27.3 µM); in test [2] (setting [12]), more than 50 µg/mL; in test [3] (setting [9]) it was less than 0.0005 µg/mL; in test [3] (setting [10]) it was 0.034 ± 0.003 µg/mL (≈ 0.0419 µM). Also, the IC50 in test [4] (setting [13]) was 3.45 ± 0.63 µg/mL (≈ 4.25 µM); in test [4] (setting [14]), 34.6 ± 1.75 µg/mL (≈ 42.7 µM); in test [5] (setting [15]) it was less than 0.0005 µg/mL; in test [5] (setting [16]), 0.026 ± 0.001 µg/mL (≈ 0.0321 µM); in test [6] (setting [13]), 32.6 ± 8.46 µg/mL (≈ 40.2 µM); in test [6] (setting [14]), more than 50 µg/mL. Moreover, the IC50 in test [7] (setting [15]) was less than 0.0005 µg/mL; in test [7] (setting [16]), 0.031 µg/mL (≈ 0.0382 µM); in test [8] (setting [11]) it was 34.9 ± 4.8 µg/mL (≈ 43 µM); in test [8] (setting [12]), more than 50 µg/mL.

`CO[C@@]12[C@H](COC(N)=O)C3=C(C(=O)C(C)=C(N)C3=O)N1C[C@@H]1N[C@@H]12` [Mitomycin C, mitomycin C]: the IC50 was determined as 0.23 ± 0.03 µg/mL (≈ 0.688 µM) in test [1] (setting [9]); 2.01 ± 0.11 µg/mL (≈ 6.01 µM) in test [1] (setting [10]); 2.12 ± 0.08 µg/mL (≈ 6.34 µM) in test [2] (setting [11]); 21.3 µg/mL (≈ 63.7 µM) in test [2] (setting [12]); 0.29 ± 0.01 µg/mL (≈ 0.867 µM) in test [3] (setting [9]); 2.46 ± 0.04 µg/mL (≈ 7.36 µM) in test [3] (setting [10]). Besides, the IC50 in test [4] (setting [13]) came out at 1.89 ± 0.06 µg/mL (≈ 5.65 µM); in test [4] (setting [14]), 36.9 µg/mL (≈ 110 µM); in test [5] (setting [15]), 0.045 µg/mL (≈ 0.135 µM); in test [5] (setting [16]), 1.34 ± 0.01 µg/mL (≈ 4.01 µM); in test [6] (setting [13]) it was 2.08 ± 0.09 µg/mL (≈ 6.22 µM); in test [6] (setting [14]) it was 24.2 ± 0.81 µg/mL (≈ 72.4 µM). Further, the IC50 in test [7] (setting [15]) is 0.22 ± 0.01 µg/mL (≈ 0.658 µM); in test [7] (setting [16]) it was 2.29 µg/mL (≈ 6.85 µM); in test [8] (setting [11]), 2 ± 0.16 µg/mL (≈ 5.98 µM); in test [8] (setting [12]), 21.3 ± 0.95 µg/mL (≈ 63.7 µM).
